Legend:
[1] = molecular target: T1, human adenosine A1 receptor (Homo sapiens, UniProt P30542); experiment: Inhibition binding assay, human adenosine A1 receptor membranes, [3H]DPCPX; conditions: 1 nM [3H]DPCPX, 25° C., 1 h; IC50 converted to Ki with Cheng-Prusoff; read-out: A1 pKi (converted)
T1 construct: expressed in transfected cells; host or cells: HEK293 cells infected with BacMam (the same paragraph also labels the preparation CHO-hA1)
T1 sequence (P30542 1-326): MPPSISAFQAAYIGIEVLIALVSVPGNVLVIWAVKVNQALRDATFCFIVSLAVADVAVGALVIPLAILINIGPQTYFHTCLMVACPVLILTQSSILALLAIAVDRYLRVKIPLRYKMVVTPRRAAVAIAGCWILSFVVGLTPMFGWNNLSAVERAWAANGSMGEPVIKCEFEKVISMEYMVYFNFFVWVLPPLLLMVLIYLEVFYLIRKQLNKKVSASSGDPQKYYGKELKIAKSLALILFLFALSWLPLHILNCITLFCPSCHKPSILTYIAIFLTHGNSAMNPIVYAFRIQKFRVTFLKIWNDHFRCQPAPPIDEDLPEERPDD
Method in brief: (§1)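 Membranes from BacMam-infected HEK293 cells (0.2 μg A2A, 1.4 μg A1) incubated 1 h at 25° C with test compound and 1 nM [3H]ZM241385 (A2A; 50 mM Tris-HCl pH 7.4) or [3H]DPCPX (A1; plus 100 mM NaCl, 10 mM MgCl2). Nonspecific: 1 μM CGS15943 or DPCPX. Filtration, scintillation; IC50 converted to Ki via Cheng-Prusoff.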

[2] = molecular target: T2, human adenosine A2A receptor (Homo sapiens, UniProt P29274); experiment: Inhibition binding assay, human adenosine A2A receptor membranes, [3H]ZM241385; conditions: 1 nM [3H]ZM241385, HEK293-hA2A membranes, 25° C., 1 h; IC50 converted to Ki with Cheng-Prusoff; read-out: A2A pKi (converted)
T2 construct: expressed in transfected cells; host or cells: HEK293 cells infected with BacMam
T2 sequence (P29274 whole entry): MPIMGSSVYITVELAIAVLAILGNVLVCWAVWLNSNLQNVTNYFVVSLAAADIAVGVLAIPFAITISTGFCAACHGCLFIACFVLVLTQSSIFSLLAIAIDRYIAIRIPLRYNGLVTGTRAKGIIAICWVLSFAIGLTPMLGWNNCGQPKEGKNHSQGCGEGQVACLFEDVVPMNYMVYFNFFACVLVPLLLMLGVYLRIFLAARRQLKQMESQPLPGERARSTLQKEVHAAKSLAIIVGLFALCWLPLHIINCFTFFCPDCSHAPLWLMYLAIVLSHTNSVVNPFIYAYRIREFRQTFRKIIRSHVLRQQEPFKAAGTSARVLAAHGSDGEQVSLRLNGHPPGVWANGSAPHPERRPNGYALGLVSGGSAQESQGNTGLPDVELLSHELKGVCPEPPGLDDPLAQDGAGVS
Method in brief: as §1

Compound | Ki [1] [nM] | Ki [2] [nM]
Cc1cc(-c2c(-c3ccc(F)cc3)nc(N)n3c(=O)n(Cc4cccnn4)nc23)cc(CO)n1 [Example 1-58, 5-amino-7-(4-fluorophenyl)-8-[2-(hydroxymethyl)-6-methyl-4-pyridyl]-2-(pyridazin-3-ylmethyl)-[1,2,4]triazolo[4,3-c]pyrimidin-3-one] | 631 | 12.6
Cc1cc(-c2c(-c3ccccc3)nc(N)n3c(=O)n(CCN(C)C4CCN(c5ccccc5)CC4)nc23)cc(C)n1 [Example 1-93, 5-amino-8-(2,6-dimethyl-4-pyridyl)-2-[2-[methyl-(1-phenyl-4-piperidyl)amino]ethyl]-7-phenyl-[1,2,4]triazolo[4,3-c]pyrimidin-3-one] | 631 | 31.6
Cc1cc(-c2c(-c3ccccc3)nc(N)n3c(=O)n(Cc4c(F)cccc4F)nc23)cc(C)n1 [Example 1-23, 5-amino-2-[(2,6-difluorophenyl)methyl]-8-(2,6-dimethyl-4-pyridyl)-7-phenyl-[1,2,4]triazolo[4,3-c]pyrimidin-3-one] | 3.16 | 0.1
Cc1cc(-c2c(-c3ccccc3)nc(N)n3c(=O)n(CCc4ccccn4)nc23)cc(C)n1 [Example 1-86, 5-amino-8-(2,6-dimethyl-4-pyridyl)-7-phenyl-2-[2-(2-pyridyl)ethyl]-[1,2,4]triazolo[4,3-c]pyrimidin-3-one] | 794 | 5.01
Cc1cc(-c2c(-c3ccccc3)nc(N)n3c(=O)n(CCc4ccccc4)nc23)cc(N2CCC2)n1 [Example 1-90, 5-amino-8-[2-(azetidin-1-yl)-6-methyl-4-pyridyl]-7-phenyl-2-(2-phenylethyl)-[1,2,4]triazolo[4,3-c]pyrimidin-3-one] | 398 | 12.6
Cc1cc(-c2c(-c3ccccc3)nc(N)n3c(=O)n(CC4CCNCC4)nc23)cc(C)n1 [Example 2-68, 5-amino-8-(2,6-dimethyl-4-pyridyl)-7-phenyl-2-(4-piperidylmethyl)-[1,2,4]triazolo[4,3-c]pyrimidin-3-one] | > 3160 | 398
Cc1cc(-c2c(-c3ccccc3)nc(N)n3c(=O)n(CCC#N)nc23)cc(C)n1 [Example 2-11, 3-[5-amino-8-(2,6-dimethyl-4-pyridyl)-3-oxo-7-phenyl-[1,2,4]triazolo[4,3-c]pyrimidin-2-yl]propanenitrile] | 794 | 15.8
Cc1cc(-c2c(-c3ccccc3)nc(N)n3c(=O)n(Cc4ncc(F)cc4Cl)nc23)cc(CO)n1 [Example 1-50, 5-amino-2-[(3-chloro-5-fluoro-2-pyridyl)methyl]-8-[2-(hydroxymethyl)-6-methyl-4-pyridyl]-7-phenyl-[1,2,4]triazolo[4,3-c]pyrimidin-3-one] | 200 | 1
Cc1cc(-c2c(-c3ccc(F)cc3)nc(N)n3c(=O)n(CCC(F)(F)F)nc23)cc(Cl)n1 [Example 2-50, 5-amino-8-(2-chloro-6-methyl-4-pyridyl)-7-(4-fluorophenyl)-2-(3,3,3-trifluoropropyl)-[1,2,4]triazolo[4,3-c]pyrimidin-3-one] | 79.4 | 0.794
COc1ccc(Cn2nc3c(-c4cc(C)nc(Cl)c4)c(-c4ccccc4)nc(N)n3c2=O)nc1 [Example 1-77, 5-amino-8-(2-chloro-6-methyl-4-pyridyl)-2-[(5-methoxy-2-pyridyl)methyl]-7-phenyl-[1,2,4]triazolo[4,3-c]pyrimidin-3-one] | 200 | 0.398
Cc1cc(-c2c(-c3ccccc3)nc(N)n3c(=O)n(CC45C6C7C8C6C4C8C75)nc23)cc(CO)n1 (stereo not drawn) [Example 2-62, 5-amino-2-(cuban-1-ylmethyl)-8-[2-(hydroxymethyl)-6-methyl-4-pyridyl]-7-phenyl-[1,2,4]triazolo[4,3-c]pyrimidin-3-one] | 31.6 | 0.316
Cc1cc(-c2c(-c3ccccc3)nc(N)n3c(=O)n(CCNC(=O)OC(C)(C)C)nc23)cc(C)n1 [Example 2-14, tert-butyl N-[2-[5-amino-8-(2,6-dimethyl-4-pyridyl)-3-oxo-7-phenyl-[1,2,4]triazolo[4,3-c]pyrimidin-2-yl]ethyl]carbamate] | 794 | 100
